Data taken from paper PMC6193120, “Substrate Specificity Analysis of Dihydrofolate/Dihydromethanopterin Reductase Homologs in Methylotrophic α-Proteobacteria” (Frontiers in Microbiology, 2018).

B1: H6-DfrB (Methylorubrum extorquens) (protein)
chain: MDVRLIAAIGRRGQLGLEGDMPWGRSFPDDLRRFRELTAGGIVLVGWRTWPTVERLQGTHGRRFVVDDVKLPPTGMLVRLQEPDASGTRDRPVWIAGGAKTYARYARFVDEFVVRRVPYDGPADTWMPDLLGTPEADRTDGPYTGRSPTDKQWRPGCRRLRDR
notes: megaplasmid-encoded
B2: H6-DfrA (Methylorubrum extorquens) (protein)
chain: MAQPRISLVAAIARNGVIGRDNSLAWRLSSDLKRFKALTMGKPILMGRKTWDSIGRPLPGRRSLVITRDRSLALSDVTVVHDWDEALAAAGDDELMVVGGAEIYRLALPHADRLHLTEVDAAPEGDAYFPPFDRSLFRETLREAHGPGERDEFAFQFVDLERLGSR

Experiments:
Hni-DAGK-H6 = test system: T1, Hni-DAGK-H6; assay: NADPH oxidation at […] nm, anaerobic; format: biochemical, Hyphomicrobium nitrativorans; conditions: 0.1 mM NADPH, pH 5.3, sodium acetate; H2SPT from partially oxidized Methanosarcina thermophila H4SPT fraction; read-out: KM(app)
T1 construct: gene dmrA

[1] = molecular target: T2, M. extorquens AM1 DmrA-H4 (Methylorubrum extorquens, UniProt C5B2R8); assay: NADPH oxidation at […] nm, anaerobic; format: biochemical; conditions: 0.1 mM NADPH, pH 5.3, sodium acetate; H2SPT from partially oxidized Methanosarcina thermophila H4SPT fraction; read-out: KM(app)
T2 sequence (C5B2R8 1-135): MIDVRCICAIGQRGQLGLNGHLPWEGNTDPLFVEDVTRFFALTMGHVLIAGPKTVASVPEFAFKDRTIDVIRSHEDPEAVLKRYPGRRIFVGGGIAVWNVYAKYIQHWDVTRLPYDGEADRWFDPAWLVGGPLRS

Mno-DAGK-H6 = test system: T3, Mno-DAGK-H6; assay: NADPH oxidation at […] nm, anaerobic; format: biochemical, Methylobacterium nodulans; conditions: 0.1 mM NADPH, pH 5.3, sodium acetate; H2SPT from partially oxidized Methanosarcina thermophila H4SPT fraction; read-out: KM(app)
T3 construct: gene dmrA

purified protein = substrate: Nc1nc2c(c(=O)[nH]1)N=C(CNc1ccc(C(=O)N[C@@H](CCC(=O)O)C(=O)O)cc1)CN2; assay: purified protein; format: biochemical, Methylorubrum extorquens; conditions: 100 μM NADPH, pH 6.8, room temperature

Molecule	Km (Hni-DAGK-H6) [µM]	Km [1] [µM]	Km (Mno-DAGK-H6) [µM]	Km (purified protein) [µM]
dihydrosarcinapterin	102 ± 73	193 ± 71	695 ± 176	
B1				18 ± 8.9
B2				14 ± 3.0
